Experimental data taken from PubChem BioAssay AID1918998 (Molecular Pharmacology Branch, DTP, NCI, 2023).
“And” between values parts separate entries of the source, which are not always exact repeats. Equal entries are not always repeated. Values belong to the compound of their own block, whether it stands above or below them.

Test system: 521955-158-R2-J5-PDC complex spheroid growth
Assay: Anticancer human tumor 521955-158-R2-J5-PDC patient-derived pancreatic carcinoma cell line growth inhibition [AhR]
Details: for viability, T/C: stronger effect = lower value
Text: Multicellular complex tumor spheroid response to aryl hydrocarbon receptor antagonists in combination with a variety of drugs and investigational agents in selected tumor cell lines
The current study was undertaken to assess response to aryl hydrocarbon receptor antagonists in combination with standard-of-care drugs and investigational agents in solid tumor complex spheroid models. Complex spheroids include a stromal component modeled by human endothelial cells (HUVEC) and fibroblasts modeled by human mesenchymal stem cells (MSCs). The concentration ranges selected for each drug and investigational agent were based upon clinically achievable concentrations if the clinical Cmax of the agent was known.
Compounds. The drugs and investigational agents: BAY 2416964 (NSC825713), GNF351 (NSC835774), CH-223191 (NSC835775), CPI-455 (NSC825282), aza-TdCyd (NSC777586), decitabine (NSC127716), belinostat (NSC758774), entinostat (NSC756642), pevonedistat (NSC761192), tazemetostat (NSC777109), talazoparib (NSC765396), olaparib (NSC753686), selinexor (NSC780203), nedisertib (M3814, NSC802822), bortezomib (NSC756655), venetoclax (NSC766270), doxorubicin (NSC123127), elimusertib (BAY189344, NSC800525), ceralasertib (AZD6738, NSC777638), TAK-243 (NSC785004), alisertib (NSC759677), etoposide (NSC141540), topotecan (NSC609699), eribulin (NSC707389), gemcitabine (NSC613327), carboplatin (NSC241240), cisplatin (NSC119875), and SN-38 (NSC673596) were obtained from the National Cancer Institute (NCI) Developmental Therapeutics Program Chemical Repository (32). The FDA-approved anticancer drug set is available from the Developmental Therapeutics Program at https://dtp.cancer.gov/organization/dscb/obtaining/available plates.htm. […] The stock solutions were prepared in dimethyl sulfoxide (DMSO, Sigma-Aldrich, St. Louis, MO, cat. D2650), except for the platinum compounds which were prepared in saline (Quality Biological, Gaithersburg, MD, cat. 114-055-101), at 800-fold the tested concentration and stored at -70 degrees C prior to their use. All drugs and investigational agents were tested over a range starting from a high concentration at or near the clinical Cmax and decreasing in half-log increments. If the clinical Cmax for an agent had not been determined, the highest concentration tested was 10 microM (Table 1).
Cell Culture. All cells were maintained in an incubator at 37 degrees C and 5% CO2 with 95% humidity. The PDC lines were cultured according to standard operating procedures established by the NCI PDMR (https://pdmr.cancer.gov). Briefly, all PDCs were thawed and cultured in Matrigel-coated flasks prepared with a working solution of 1X Ham's F-12 nutrient mix, without supplementation (Invitrogen, Waltham, MA, cat. 11765054), 100 U/mL penicillin-streptomycin (Invitrogen, cat. 15140122), and 2.5% Matrigel (Corning Inc., Corning, NY, cat. 354248) for the first three passages. All PDCs were cultured in complete DMEM/F-12 media containing advanced DMEM/F-12 (Invitrogen, cat. 12634028), 4.9% defined fetal bovine serum, heat inactivated (HyClone Laboratories Inc., Logan, UT, cat. SH30070.03HI), 389 ng/mL hydrocortisone (Sigma-Aldrich, cat. H4001), 9.7 ng/mL human EGF recombinant protein (Invitrogen, cat. PHG0313), 23.4 microg/mL adenine (Sigma-Aldrich, cat. A2786), 97.3 U/mL penicillin-streptomycin (Invitrogen, cat. 15140122), 1.9 mM L-glutamine (Invitrogen, cat. 25030081), and 9.7 microM Y-27632 dihydrochloride (Tocris Bioscience, Bristol, United Kingdom, cat. 1254). The PDCs were cultured in complete DMEM/F12 media without 10 microM Y-27632 dihydrochloride for at least two passages prior to the screen. The established cell lines NCI-H1341 and […] were cultured in DMEM/F-12, HEPES (Invitrogen, cat. 11330032), 5% defined fetal bovine serum (HyClone Laboratories Inc., cat. SH30070.03), ITS premix universal culture supplement [insulin (5 microg/mL), transferrin (5 microg/mL), and selenious acid (5 ng/mL)] […]

[1] = curve of first compound, second compound 0.1 µM
[2] = curve of first compound, second compound 0.316 µM
[3] = curve of first compound, second compound 1 µM
[4] = curve of first compound, second compound 3.16 µM
[5] = curve of first compound, second compound 10 µM
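For viability, T/C in this document: spheroids mix tumor cells with HUVEC endothelium and human MSC stroma; luminescence taken as viability surrogate after a week of drug exposure.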

- IC50 [1]: > 3 µM
- IC50 [2]: > 3 µM
- IC50 [3]: > 3 µM
- IC50 [4]: > 3 µM
- IC50 [5]: > 3 µM
Compound: CCN(c1cc(-c2ccc(CN3CCOCC3)cc2)cc(C(=O)NCc2c(C)cc(C)[nH]c2=O)c1C)C1CCOCC1 + CC(CO)NC(=O)c1cc(-c2ccc(Cl)cc2)nn(-c2cnn(C)c2)c1=O
- viability, T/C (second compound 0.1 µM, first compound 0.00949 µM): 121%
- viability, T/C (second compound 0.1 µM, first compound 0.03 µM): 110%
- viability, T/C (second compound 0.1 µM, first compound 0.0949 µM): 102%
- viability, T/C (second compound 0.1 µM, first compound 0.3 µM): 80.8%
- viability, T/C (second compound 0.1 µM, first compound 0.949 µM): 81.1%
- viability, T/C (second compound 0.1 µM, first compound 3 µM): 102%
- viability, T/C (second compound 0.316 µM, first compound 0.00949 µM): 103%
- viability, T/C (second compound 0.316 µM, first compound 0.03 µM): 103%
- viability, T/C (second compound 0.316 µM, first compound 0.0949 µM): 97.4%
- viability, T/C (second compound 0.316 µM, first compound 0.3 µM): 101%
- viability, T/C (second compound 0.316 µM, first compound 0.949 µM): 87.6%
- viability, T/C (second compound 0.316 µM, first compound 3 µM): 86.5%
- viability, T/C (second compound 1 µM, first compound 0.00949 µM): 105%
- viability, T/C (second compound 1 µM, first compound 0.03 µM): 93.7%
- viability, T/C (second compound 1 µM, first compound 0.0949 µM): 129%
- viability, T/C (second compound 1 µM, first compound 0.3 µM): 94.5%
- viability, T/C (second compound 1 µM, first compound 0.949 µM): 72.5%
- viability, T/C (second compound 1 µM, first compound 3 µM): 82.6%
- viability, T/C (second compound 3.16 µM, first compound 0.00949 µM): 90.6%
- viability, T/C (second compound 3.16 µM, first compound 0.03 µM): 79.3%
- viability, T/C (second compound 3.16 µM, first compound 0.0949 µM): 99.1%
- viability, T/C (second compound 3.16 µM, first compound 0.3 µM): 86.7%
- viability, T/C (second compound 3.16 µM, first compound 0.949 µM): 74%
- viability, T/C (second compound 3.16 µM, first compound 3 µM): 91%
- viability, T/C (second compound 10 µM, first compound 0.00949 µM): 91%
- viability, T/C (second compound 10 µM, first compound 0.03 µM): 96.8%
- viability, T/C (second compound 10 µM, first compound 0.0949 µM): 84.9%
- viability, T/C (second compound 10 µM, first compound 0.3 µM): 77.4%
- viability, T/C (second compound 10 µM, first compound 0.949 µM): 74.4%
- viability, T/C (second compound 10 µM, first compound 3 µM): 60.7%

- IC50 [1]: 0.0323 µM
- IC50 [2]: 0.0367 µM
- IC50 [3]: 0.028 µM
- IC50 [4]: 0.022 µM
- IC50 [5]: 0.0199 µM
Compound: CC[C@@]1(O)C(=O)OCc2c1cc1n(c2=O)Cc2cc3c(CN(C)C)c(O)ccc3nc2-1 + CC(CO)NC(=O)c1cc(-c2ccc(Cl)cc2)nn(-c2cnn(C)c2)c1=O
- viability, T/C (second compound 0.1 µM, first compound 0.000316 µM): 99.8%
- viability, T/C (second compound 0.1 µM, first compound 0.001 µM): 91.6%
- viability, T/C (second compound 0.1 µM, first compound 0.00316 µM): 110%
- viability, T/C (second compound 0.1 µM, first compound 0.01 µM): 82.5%
- viability, T/C (second compound 0.1 µM, first compound 0.0316 µM): 51.8%
- viability, T/C (second compound 0.1 µM, first compound 0.1 µM): 16%
- viability, T/C (second compound 0.316 µM, first compound 0.000316 µM): 112%
- viability, T/C (second compound 0.316 µM, first compound 0.001 µM): 109%
- viability, T/C (second compound 0.316 µM, first compound 0.00316 µM): 89.8%
- viability, T/C (second compound 0.316 µM, first compound 0.01 µM): 82.5%
- viability, T/C (second compound 0.316 µM, first compound 0.0316 µM): 57.4%
- viability, T/C (second compound 0.316 µM, first compound 0.1 µM): 13.3%
- viability, T/C (second compound 1 µM, first compound 0.000316 µM): 93%
- viability, T/C (second compound 1 µM, first compound 0.001 µM): 104%
- viability, T/C (second compound 1 µM, first compound 0.00316 µM): 106%
- viability, T/C (second compound 1 µM, first compound 0.01 µM): 86.5%
- viability, T/C (second compound 1 µM, first compound 0.0316 µM): 46.1%
- viability, T/C (second compound 1 µM, first compound 0.1 µM): 20.1%
- viability, T/C (second compound 3.16 µM, first compound 0.000316 µM): 99.2%
- viability, T/C (second compound 3.16 µM, first compound 0.001 µM): 102%
- viability, T/C (second compound 3.16 µM, first compound 0.00316 µM): 91.8%
- viability, T/C (second compound 3.16 µM, first compound 0.01 µM): 75.4%
- viability, T/C (second compound 3.16 µM, first compound 0.0316 µM): 38.3%
- viability, T/C (second compound 3.16 µM, first compound 0.1 µM): 19.2%
- viability, T/C (second compound 10 µM, first compound 0.000316 µM): 76.5%
- viability, T/C (second compound 10 µM, first compound 0.001 µM): 86.3%
- viability, T/C (second compound 10 µM, first compound 0.00316 µM): 85.6%
- viability, T/C (second compound 10 µM, first compound 0.01 µM): 71.6%
- viability, T/C (second compound 10 µM, first compound 0.0316 µM): 35.3%
- viability, T/C (second compound 10 µM, first compound 0.1 µM): 17.9%

- IC50 (curve of compound): 0.0955 µM and 0.176 µM and 0.0846 µM
Compound: CC1COCCN1c1cc(-c2ccnn2C)c2ccnc(-c3ccn[nH]3)c2n1 (configuration not stated)
- viability, T/C (compound 0.00316 µM): 96.3% and 94.8% and 101%
- viability, T/C (compound 0.01 µM): 98.2% and 92.8% and 104%
- viability, T/C (compound 0.0316 µM): 97.8% and 84.1% and 95.1%
- viability, T/C (compound 0.1 µM): 48% and 79.2% and 42.4%
- viability, T/C (compound 0.316 µM): 15.5% and 19.4% and 16.3%
- viability, T/C (compound 1 µM): 19.2% and 18.6% and 16%
